Source: ChEMBL document CHEMBL4270494, “Recent insights into synthetic β-carbolines with anti-cancer activities” (Eur J Med Chem, 2017)
Counter-ions that a name gives are not always drawn.

Legend:
HeLa = test: Cytotoxicity against human HeLa cells by MTT assay; format: functional, cell-based
HepG2 = test: Cytotoxicity against human HepG2 cells by MTT assay; format: functional, cell-based
B16 = test: Cytotoxicity against mouse B16 cells assessed as reduction in cell viability incubated for 48 hrs by MTT assay; format: functional, cell-based; settings: B16, 48 h
PC-3 = test: Cytotoxicity against human PC3 cells assessed as reduction in cell viability incubated for 48 hrs by MTT assay; format: functional, cell-based; settings: PC-3, 48 h
HT-29 = test: Cytotoxicity against human HT-29 cells assessed as reduction in cell viability incubated for 48 hrs by MTT assay; format: functional, cell-based; settings: HT-29, 48 h
A549 = test: Cytotoxicity against human A549 cells assessed as reduction in cell viability incubated for 48 hrs by MTT assay; format: functional, cell-based; settings: A549, 48 h
CCRF S-180 = test: Antitumor activity against mouse S180 cells implanted in ICR mouse assessed as inhibition of tumor growth at 0.1 umol/kg, ip for 7 consecutive days starting 24 hrs after tumor cell inoculation relative to untreated control; format: functional; settings: CCRF S-180, ip, read-out: TGI
MCF7 [1] = test: Induction of apoptosis in human MCF7 cells by Annexin V-FITC dual staining based flow cytometry (reference value: 0.03%); format: functional
MCF7 [2] = test: Cytotoxicity against human MCF7 cells by MTT assay; format: functional, cell-based
HL-60 = test: Cytotoxicity against human HL60(TB) cells incubated for 48 hrs by SRB assay; format: functional; settings: HL-60, 48 h, read-out: LC50 (the source's name)
NCI-H1299 = test: Cytotoxicity against human NCI-H1299 cells; format: functional, cell-based
A-375 = test: Cytotoxicity against human A375 cells; format: functional, cell-based
IMR-90 = test: Cytotoxicity against human IMR90 cells; format: functional, cell-based

For `COC(=O)c1cc2c([nH]c3ccccc32)c(-c2ccc(OCc3cn(-c4cccc(Cl)c4Cl)nn3)cc2)n1`, the IC50 (HeLa) was 46 µM and the IC50 (HepG2) was 32 µM.

`COc1cc(C(=O)/C=C/c2cc3c([nH]c4ccccc43)c(-c3cc(OC)c(OC)c(OC)c3)n2)cc(OC)c1OC` gave an IC50 (B16) of 6.37 µM, an IC50 (PC-3) of 19.6 µM and an IC50 (HT-29) of 23.1 µM. The IC50 (A549) was 5.3 µM.

`COc1cccc2c1C(=O)c1c(O)c3c(c(O)c1C2=O)C[C@@](O)(C(=O)CO)C[C@@H]3O[C@H]1C[C@H](N)[C@H](O)[C@H](C)O1` [DOXORUBICIN HYDROCHLORIDE] gave an inhibition in vivo at 0.1 µmol/kg (CCRF S-180) of 61.1%.

`O=C(/C=C/c1cc2c([nH]c3ccccc32)c(-c2ccc(C(F)(F)F)cc2)n1)c1ccco1` showed an Activity (MCF7 [1]) of 58.29% and an IC50 (MCF7 [2]) of 1.56 to 5.29 µM.

Work on `CC[C@H](C)[C@H](NC(=O)[C@H](Cc1c[nH]c2ccccc12)NC(=O)[C@H](Cc1c[nH]c2ccccc12)NC(=O)c1cc2c([nH]c3ccccc32)c(-c2ccc(O)c(OC)c2)n1)C(=O)OCc1ccccc1` yielded an inhibition in vivo at 0.1 µmol/kg (CCRF S-180) of 63.4%.

Work on `COc1ccc2[nH]cc(-c3nccc4c3[nH]c3ccc(OC)cc34)c2c1` yielded a CC50 (HL-60) of 4.2 µM.

`c1ccc2c(c1)[nH]c1c(CNCCOCCNCc3nccc4c3[nH]c3ccccc34)nccc12` was tested, and the IC50 (NCI-H1299) was 1.6 µM, the IC50 (A-375) was 3 µM and the IC50 (IMR-90) was 1.6 to 201 µM.

`COc1cc(-c2nc(C(=O)N[C@@H](Cc3c[nH]c4ccccc34)C(=O)N[C@@H](Cc3c[nH]c4ccccc34)C(=O)N[C@@H](CO)C(=O)OCc3ccccc3)cc3c2[nH]c2ccccc23)ccc1O` showed an inhibition in vivo at 0.1 µmol/kg (CCRF S-180) of 62.9%.

For `CC(=O)N1N=C(c2ccco2)CC1c1cc2c([nH]c3ccccc32)c(-c2ccc(C(F)(F)F)cc2)n1` (configuration not stated), the Activity (MCF7 [1]) was 62.64% and the IC50 (MCF7 [2]) was 1.56 to 5.29 µM.
